Where “and” joins values, the source holds several entries; their conditions need not be identical. Identical values can stand only once.
Legend:
[1] = target: T1, GABA-A receptor; anion channel (Rattus norvegicus) (UniProt O09028+P15431+P18506+P18508+P19969+P20236+P23574+P23576+P28471+P28473+P30191+P62813+P63079+P63138+Q91ZM7+Q9ES14); assay: Percent binding to GABA-A benzodiazepine receptor of rat hippocampal neurons at 2 nM; type: tissue-based; settings: Hippocampus
[2] = target: T1, GABA-A receptor; anion channel (Rattus norvegicus); assay: Non-specific binding to GABA-A benzodiazepine receptor of rat hippocampal neurons after co-incubation with 1 uM midazolam (range is 7-10%); type: tissue-based; settings: Hippocampus
[3] = target: T1, GABA-A receptor; anion channel (Rattus norvegicus); assay: Saturation binding for benzodiazepine receptor of rat hippocampal neurons; type: tissue-based; settings: Hippocampus
[4] = target: GABA-A receptor; anion channel; assay: Binding affinity for GABA-A benzodiazepine receptor of rat hippocampal neurons; type: tissue-based, Hippocampus

- Binding [1]: 90%
- Binding [2]: 10%
- Concentration [3]: 120 nM
- Kd [4]: 0.0972 µM and 0.0099 µM
SMILES: CC1N=c2c(cc3c(c2S(=O)(=O)O)Oc2c(cc4c(c2S(=O)(=O)O)NC(C)C4(C)C)C=3c2ccc(C(=O)NCCN3C(=O)CN=C(c4ccccc4F)c4cc(Cl)ccc43)cc2)C1(C)C (centres undefined)

— ChEMBL document CHEMBL1148354, “Dye-labeled benzodiazepines: development of small ligands for receptor binding studies using fluorescence correlation spectroscopy” (J Med Chem, 2004)
